Measured values taken from paper PMC12439480, “Dimeric CCK2R radiotheranostic tracers synergize with mTOR inhibition for enhanced tumor therapy” (Theranostics, 2025).
Numbered stars: 1 amine (or outer) side, 2 acyl side, 3 side chain; on linkers, the order of the positions; unused ones are H or OH. Square brackets hold non-standard residues; d marks the D form. Side chains are listed from the residue outwards. Peptide text beside a SMILES is read from it. * marks the point of attachment. DOTA = O=C(O)CN1CCN(CC(=O)O)CCN(CC(=O)*)CCN(CC(=O)O)CC1; d(γGlu) = O=C(O)[C@@H](CCC(=O)[*:2])N[*:1]; 1Nal = N[C@@H](Cc1cccc2ccccc12)C(=O)O; NMeNle = CCCC[C@H](NC)C(=O)O; PEG4 = NCCOCCOCCOCCOCCC(=O)O

Columns and labels:
in vivo = test: in vivo; parameters: species or system BALB/c nude mice; conditions: female, BALB/c nude, mouse, iv, total radioactivity
Experimental: For the micro-positron emission tomography/computed tomography (microPET/CT) imaging study, BALB/c nude mice bearing AR42J tumors (detailed in Supplementary Methods Section S3: Mouse Models) were intravenously injected with 3.7 MBq of [^68Ga]Ga-DOTA-CCK2R-dimer (≈ 120 pmol) or [^68Ga]Ga-DOTA-CCK-66 (≈ 210 pmol) (dissolved in 200 μL of saline; n = 3/group), and microPET/CT imaging was performed at 30, 60, and 120 min post-injection. The mice were anesthetized via inhalation of an isoflurane mixture approximately 5 min before each PET/CT acquisition began. To confirm tumor-specific radiopharmaceutical uptake, blocking experiments were conducted at the 1-h time point of imaging by coinjecting the mice with the radiopharmaceutical and a 400-fold excess of the lead compound.
All animal studies were approved by the Ethics Committee of Fudan University
Shanghai Cancer Center (No. FUSCC-IACUC- S2023- 0003). Five-week-old female
BALB/c nude mice were purchased from Shanghai SLAC Laboratory Animal
Company. To establish cell-derived xenograft (CDX) models, 1 × 10⁶ AR42J cells
(100 μL) were subcutaneously inoculated into the right shoulder of each mouse. […]

[1] = parameters: species or system KM mice; conditions: mouse, in vivo, iv
Experimental: To evaluate the clearance rates of [^68Ga]Ga-DOTA-CCK2R-dimer and [^68Ga]Ga-DOTA-CCK-66 from the blood, a pharmacokinetic study was conducted in male KM mice (4-6 weeks old, 18-20 g, n = 5/group). Each mouse received 3.7 MBq of radiotracer via tail vein injection, corresponding to approximately 120 pmol of [^68Ga]Ga-DOTA-CCK2R-dimer or 210 pmol of [^68Ga]Ga-DOTA-CCK-66. Blood samples were collected from the tail vein into preweighed capillary tubes at 1, 3, 5, 10, 15, 30, 60, 90, 120, and 150 min post-injection. The radioactivity of the blood samples was measured using a γ-counter, and the percent of injected dose per gram of tissue (%ID/g) was calculated. Additionally, we assessed the in vivo stability of [^177Lu]Lu-DOTA-CCK2R-dimer. Mice were intravenously injected with 7.4 MBq (≈ 240 pmol) of [^177Lu]Lu-DOTA-CCK2R-dimer (dissolved in 200 μL of saline; n = 3/group). Urine samples were collected at 1, 4, and 24 hours post-injection, then diluted, filtered through a 0.22 μm membrane, and analyzed by radio-HPLC.
All animal studies were approved by the Ethics Committee of Fudan University […]
Shanghai Cancer Center (No. FUSCC-IACUC- S2023- 0003). […]
Pharmacokinetics in Normal Mice
F or the pharmacokinetics study, […] male KM mice (4 - 6 weeks old, weighing 18 - 20 g) were administered either [68Ga]Ga-D O TA -CCK2R-dimer or [68Ga]Ga-D O TA -CCK- 66 (3.7 MBq per mouse, n = 5/group) via tail vein injection.
Blood samples were collected from the tail vein using pre-weighed capillary tubes at […]
Radioactivity levels were measured using a gamma counter, with decay correction applied based on the injection time. The percentage of injected dose per gram of tissue (%ID/g) was calculated for each time point. […]

[2] = format: physicochemical; conditions: pH 7.4
Experimental: The hydrophilicity of [^68Ga]Ga-DOTA-CCK2R-dimer and [^68Ga]Ga-DOTA-CCK-66 was assessed by determining their partition coefficients (Log D7.4) in a phosphate-buffered saline (PBS; pH 7.4)/n-octanol (1:1, v/v) system. Briefly, ~37 kBq of each radiotracer was mixed with 2 mL of the biphasic system, vortexed for 5 min, and centrifuged at 15,000 × g for 5 min. The radioactivity in 100 μL aliquots of each phase was quantified using a γ-counter (n = 5).

SMILES | tissue uptake at 0.5 h (in vivo; 3.7 MBq) [%ID/g] | tissue uptake at 1 h (in vivo; 3.7 MBq) [%ID/g] | tissue uptake at 2 h (in vivo; 3.7 MBq) [%ID/g] | tissue uptake at 1 h (in vivo) [%ID/g] | half-life [1] [min] | logD [2] | t1/2α [1] [min]
CCCC[C@@H](C(=O)N[C@@H](CC(=O)O)C(=O)N[C@@H](Cc1cccc2ccccc12)C(N)=O)N(C)C(=O)[C@H](Cc1c[nH]c2ccccc12)NC(=O)CCOCCOCCOCCOCCNC(=O)CC[C@@H](NC(=O)CC[C@H](NC(=O)CN1CCN(CC(=O)O)CCN(CC(=O)O)CCN(CC(=O)O)CC1)C(=O)N[C@H](CCC(=O)NCCOCCOCCOCCOCCC(=O)N[C@@H](Cc1c[nH]c2ccccc12)C(=O)N(C)[C@@H](CCCC)C(=O)N[C@@H](CC(=O)O)C(=O)N[C@@H](Cc1cccc2ccccc12)C(N)=O)C(=O)O)C(=O)O [[68Ga]Ga-DOTA-CCK2R-dimer, metal not drawn] ({DOTA}-E([d(γGlu)-PEG4-Trp-NMeNle-Asp-1Nal-NH2])[d(γGlu)][PEG4]W[NMeNle]D[1Nal]-NH2) | 22.6 ± 0.32 | 23.9 ± 2.12 | 26.1 ± 6.21 | 10.9 ± 1.73 | 46.6 | -3.01 ± 0.05 | –
CCCC[C@@H](C(=O)N[C@@H](CC(=O)O)C(=O)N[C@@H](Cc1cccc2ccccc12)C(N)=O)N(C)C(=O)[C@H](Cc1c[nH]c2ccccc12)NC(=O)CCOCCOCCOCCOCCNC(=O)CC[C@@H](NC(=O)CN1CCN(CC(=O)O)CCN(CC(=O)O)CCN(CC(=O)O)CC1)C(=O)O [[68Ga]Ga-DOTA-CCK-66, metal not drawn, reference compound] ({DOTA-d(γGlu)-PEG4}-W[NMeNle]D[1Nal]-NH2) | 16 ± 2.18 | 19.5 ± 2.95 | 19.6 ± 3.35 | 7.9 ± 1.35 | 11.8 | -3.03 ± 0.03 | 0.67
